Where a name gives a salt, the structure may show the parent alone. Read-outs that look alike come from different tables or passages of the source.
Columns and labels:
GRK2 [1] = target: T1, GRK2 (Homo sapiens, UniProt P25098); experiment: Second ADPGlo GRK2 Inhibition Assay (Example 3); assay type: biochemical; conditions: ADP-Glo, 20 μM ATP; read-out: Second ADPGlo Enzymatic GRK2 Assay: IC50 (nM) (Example 3)
T1 sequence (P25098 1-689): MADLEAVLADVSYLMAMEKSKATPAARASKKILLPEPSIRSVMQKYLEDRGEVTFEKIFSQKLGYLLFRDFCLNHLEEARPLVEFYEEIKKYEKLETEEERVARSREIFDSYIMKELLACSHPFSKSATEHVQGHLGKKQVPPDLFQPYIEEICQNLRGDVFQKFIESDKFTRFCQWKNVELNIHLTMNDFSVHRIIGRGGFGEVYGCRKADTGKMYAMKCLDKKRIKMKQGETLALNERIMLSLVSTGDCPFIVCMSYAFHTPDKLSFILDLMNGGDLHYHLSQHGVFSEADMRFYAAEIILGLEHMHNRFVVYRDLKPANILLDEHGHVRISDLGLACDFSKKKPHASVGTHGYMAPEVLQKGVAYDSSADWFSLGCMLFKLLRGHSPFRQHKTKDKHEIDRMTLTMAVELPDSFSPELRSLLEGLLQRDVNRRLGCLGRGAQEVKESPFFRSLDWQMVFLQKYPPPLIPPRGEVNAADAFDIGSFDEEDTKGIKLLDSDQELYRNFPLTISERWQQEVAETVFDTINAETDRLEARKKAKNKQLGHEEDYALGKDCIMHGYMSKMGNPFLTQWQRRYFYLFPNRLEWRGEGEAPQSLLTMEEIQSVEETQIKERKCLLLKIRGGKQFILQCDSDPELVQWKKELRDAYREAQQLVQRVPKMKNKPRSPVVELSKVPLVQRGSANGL
Protocol: Assay: GRK2 (2 nM) was incubated with ATP (20 μM) and GRKtide (1.2 mg/mL) in 11 μL of assay buffer (see above) for 180 min at room temperature. Compounds were dissolved in 100% DMSO, serially diluted 3.16-fold from 100 μM with 10 concentration points and transferred as 100× into assay plate (final compounds concentration in the reaction plate from 1 μM).
Materials: GRK2 was purchased from SignalChem (Cat #A14-10G, Lot #X645-3). Substrate GRKtide was from SignalChem (Cat #G46-58, Lot #R339-6). ADP-Glo Kinase Assay from Promega (Cat #V9102). Assay buffer consisted of 20 mM HEPES (pH7.5), 20 mM MgCl2, 0.01% Tween-20, 0.05 mM DDT. 384-well white plates were from Corning (Cat #4513).
HTS protocol: Add 5.5 μL of 2× substrate-enzyme mix into all columns except of 1-2 and 24 of reaction plate. Spin 15 seconds at 200 g. Transfer 1 ul of compounds from the plate with serial dilutions (384 well plate with 22 uL of compound in columns 3-22/DMSO solution 1-2,23-24) to Dilution plate (384 well plate with 49 uL of buffer with 2×40 μM ATP). After mixing transfer 5.5 ul from Dilution plate to Reaction plate (to 5.5 μL of 2× substrate-enzyme mix). Spin 15 seconds at 200 g and incubate for 180 min at room temperature with sealing. Add 3 μL ADP-Glo reagent to all the wells. Spin 15 seconds at 200 g and incubate for 40 min at room temperature. Add 6 μL Detection solution to all the wells. Incubate for 30 min at room temperature. Read plate using ClarioStar Plus (BMG).
Data Analysis: Data were analyzed in GraphPad Prism 5.0.2. Each HTS plate contains compounds in columns 3-22, controls (enzyme, no compound) in column 23, and blanks (no enzyme) in columns 2. HTS percent inhibition was calculated for each compound from the signal in luminescence units and the mean of the plate controls and the mean of the plate blanks using the following equation: % Inhibition=100*(1-(signal-blank mean)/(control mean-blank mean)).

GRK2 [2] = target: T1, GRK2; experiment: GRK2 Inhibition Assay (TR-FRET, Example 1); assay type: biochemical
In short: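 GRK2 (1 nM) pre-incubated 30 min RT with compounds in HEPES/MgCl2/DTT/Tween-20/EGTA buffer, then reacted 90 min RT with 7 μM ATP and 50 nM ULight-TopoIIα substrate. Stopped with EDTA plus Eu anti-TopoIIα antibody; TR-FRET read after 60 min.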

PAXF1657 EV = experiment: 7-day cellular proliferation assay (CellTiter-Glo), PAXF1657 EV; assay type: cell-based
In short: (§1)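 Read-out is CellTiter-Glo luminescence after 7 days of continuous exposure, with compound re-dosed in fresh medium at day 3. Cells were seeded at 500/well and treated across 30 μM-0.0002 μM (10 points, 0.3% DMSO); baseline viability plates were read at compound addition.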

PAXF1657 KO Clone #4 = experiment: 7-day cellular proliferation assay (CellTiter-Glo), PAXF1657 KO Clone #4; assay type: cell-based
In short: as §1

GRK2 [3] = target: T1, GRK2; experiment: GRK2 Degradation Assay and Western Blot in PAXF1657 cells; assay type: cell-based; set-up: endogenous in cells; host or cells: PAXF1657
In short: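 PAXF1657 cells grown to 70% confluency, then treated with compounds at 0–10 μM for 6 to 24 h at 37 °C. Lysates in PBS with 1% NP40 run on SDS-PAGE. GRK2 protein detected by western blot with β-actin as loading reference, using ECL chemiluminescence.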

[4] = Table 4, Example 1 assay, read-out: Enzymatic GRK2 IC50: Av IC50 GRK2
[5] = proliferation, read-out: GeoMean IC50 (UM) PAXF1657 EV
[6] = proliferation, read-out: GeoMean IC50 (uM) PAXF1657 KO Clone #4
[7] = Conc 0.3 uM, read-out: Degradation Assay - 3 point: Degradation (%)
[8] = Conc 1 uM, read-out: Degradation Assay - 3 point: Degradation (%)
[9] = Conc 3 uM, read-out: Degradation Assay - 3 point: Degradation (%)

IC50 (GRK2 [1]) [nM]	IC50 (GRK2 [2]; [4]) [nM]	inhibition at 0.3 µM (GRK2 [3]; [7]) [%]	inhibition at 1 µM (GRK2 [3]; [8]) [%]	inhibition at 3 µM (GRK2 [3]; [9]) [%]	Structure (SMILES)	IC50 (PAXF1657 EV; [5]) [µM]	IC50 (PAXF1657 KO Clone #4; [6]) [µM]	other results
< 100					Cn1c(CNc2cccc(C(=O)NCc3cccc(OCCCCCCC(=O)Nc4cccc5c4CN(C4CCC(=O)NC4=O)C5=O)c3)c2)nnc1-c1ccncn1 (centres unmarked) [Compound D69]			
< 100					COc1cc(OCC(=O)NCCOCCOCC(=O)N[C@H](C(=O)N2C[C@H](O)C[C@H]2C(=O)NCc2ccc(-c3scnc3C)cc2)C(C)(C)C)ccc1CNC(=O)c1cccc(NCc2nnc(-c3ccncn3)n2C)c1 [Compound D95]			
100 to 1000					COc1cc(OCC(=O)NCCOCCOCCNC(=O)COCC(=O)N[C@H](C(=O)N2C[C@H](O)C[C@H]2C(=O)NCc2ccc(-c3scnc3C)cc2)C(C)(C)C)ccc1CNC(=O)c1cccc(NCc2nnc(-c3ccncn3)n2C)c1 [Compound D94]			
< 100					COc1cc(OCCNC(=O)CCCCCC(=O)N[C@H](C(=O)C2C[C@H](O)C[C@H]2C(=O)NCc2ccc(-c3scnc3C)cc2)C(C)(C)C)ccc1CNC(=O)c1cccc(NCc2nnc(-c3ccncn3)n2C)c1 (some centres unmarked) [Compound D93]			
					CC(NC(=O)c1cccc(NCc2nnc(-c3ccncn3)n2C)c1)c1cccc(OCCCCCCOCCOCCOCCCCCC(=O)Nc2cccc3c2CN(C2CCC(=O)NC2=O)C3=O)c1 (centres unmarked) [Compound D67, N-(1-(3-((6-(2-(2-((6-((2-(2,6-dioxopiperidin-3-yl)-1-oxoisoindolin-4-yl)amino)-6-oxohexyl)oxy)ethoxy)ethoxy)hexyl)oxy)phenyl)ethyl)-3-(((4-methyl-5-(pyrimidin-4-yl)-4H-1,2,4-triazol-3-yl)methyl)amino)benzamide]			IC50 (GRK2 [2]; TR-FRET, 7 μM ATP, read-out: Enzymatic GRK2 Assay: IC50 (nM) (Example 1)): < 100 nM; IC50 (PAXF1657 EV; 168 h, 7-day, read-out: 7-day proliferation assay: IC50 GeoMean (uM) [Cell Line: PAXF1657 EV]): 1 to 10 µM; IC50 (PAXF1657 KO Clone #4; 168 h, 7-day, read-out: 7-day proliferation assay: IC50 GeoMean (uM) [Cell Line: PAXF1657 KO Clone #4]): > 10 µM; % GRK2 degradation at 0.03 uM in PAXF1657 EV (24 hrs) (GRK2 [3]; 0.03 uM, PAXF1657 EV, 24 hrs): 38%; % GRK2 degradation at 0.1 uM in PAXF1657 EV (24 hrs) (GRK2 [3]; 0.1 uM, PAXF1657 EV, 24 hrs): 60%; inhibition at 0.3 µM (GRK2 [3]; 0.3 uM, PAXF1657 EV, 24 hrs, read-out: % GRK2 degradation at 0.3 uM in PAXF1657 EV (24 hrs)): 74%; inhibition at 1 µM (GRK2 [3]; 1 uM, PAXF1657 EV, 24 hrs, read-out: % GRK2 degradation at 1 uM in PAXF1657 EV (24 hrs)): 87%; inhibition at 3 µM (GRK2 [3]; 3 uM, PAXF1657 EV, 24 hrs, read-out: % GRK2 degradation at 3 uM in PAXF1657 EV (24 hrs)): 90%; % GRK2 degradation at 10 uM in PAXF1657 EV (24 hrs) (GRK2 [3]; 10 uM, PAXF1657 EV, 24 hrs): 83%; GRK2 degradation, dose dependence (FIGS. 1A-1D) (GRK2 [3]; 24-hour treatment in PAXF1657 cells): Dose dependent
	12	63.6	50.2	28.3	C[C@@H](NC(=O)c1cccc(NCc2nnc(-c3ccncn3)n2C)c1)c1ccc(OCCN2CCN(c3ccc4c(c3)CN(C3CCC(=O)NC3=O)C4=O)CC2)cc1 (stereo partly drawn) [Compound D174, N-((1R)-1-(4-(2-(4-(2-(2,6-dioxopiperidin-3-yl)-1-oxoisoindolin-5-yl)piperazin-1-yl)ethoxy)phenyl)ethyl)-3-((4-methyl-5-(pyrimidin-4-yl)-4H-1,2,4-triazol-3-yl)methylamino)benzamide hydrochloride]	< 0.000458	> 30	
	10.2	13.2	20.9	36.8	C[C@@H](NC(=O)c1cccc(NCc2nnc(-c3ccncn3)n2C)c1)c1ccc(OCC(=O)N2CCN(c3ccc4c(c3)CN(C3CCC(=O)NC3=O)C4=O)CC2)cc1 (stereo partly drawn) [Compound D177, N-((1R)-1-(4-(2-(4-(2-(2,6-dioxopiperidin-3-yl)-1-oxoisoindolin-5-yl)piperazin-1-yl)-2-oxoethoxy)phenyl)ethyl)-3-((4-methyl-5-(pyrimidin-4-yl)-4H-1,2,4-triazol-3-yl)methylamino)benzamide]	27	> 30	
	> 1000	24	28	38	C[C@H](NC(=O)c1cccc(NCc2nnc(-c3ccncn3)n2C)c1)c1ccc(OCCCCCCOCCOCCOCCCCCC(=O)Nc2cccc3c2CN(C2CCC(=O)NC2=O)C3=O)cc1 (stereo partly drawn) [Compound D152, N-((1S)-1-(4-(6-(2-(2-(6-(2-(2,6-dioxopiperidin-3-yl)-1-oxoisoindolin-4-ylamino)-6-oxohexyloxy)ethoxy)ethoxy)hexyloxy)phenyl)ethyl)-3-((4-methyl-5-(pyrimidin-4-yl)-4H-1,2,4-triazol-3-yl)methylamino)benzamide]	12.7	> 30	
	> 1000	56	58	34	Cc1ncsc1-c1ccc(CNC(=O)[C@@H]2C[C@@H](O)CN2C(=O)[C@@H](NC(=O)COCCCOCCCCCOc2ccc([C@H](C)NC(=O)c3cccc(NCc4nnc(-c5ccncn5)n4C)c3)cc2)C(C)(C)C)cc1 [Compound D151]	0.3	9.65	

Structure (SMILES)	IC50 (GRK2 [1]) [nM]	IC50 (GRK2 [2]; [4]) [nM]	inhibition at 0.3 µM (GRK2 [3]; [7]) [%]	inhibition at 1 µM (GRK2 [3]; [8]) [%]	inhibition at 3 µM (GRK2 [3]; [9]) [%]	IC50 (PAXF1657 EV; [5]) [µM]	IC50 (PAXF1657 KO Clone #4; [6]) [µM]	other results
C[C@H](NC(=O)c1cccc(NCc2nnc(-c3ccncn3)n2C)c1)c1cccc(OCCCCCCOCCOCCOCCCC(=O)Nc2cccc3c2CN(C2CCC(=O)NC2=O)C3=O)c1 (stereo partly drawn) [Compound D154, N-((1S)-1-(3-(6-(2-(2-(4-(2-(2,6-dioxopiperidin-3-yl)-1-oxoisoindolin-4-ylamino)-4-oxobutoxy)ethoxy)ethoxy)hexyloxy)phenyl)ethyl)-3-((4-methyl-5-(pyrimidin-4-yl)-4H-1,2,4-triazol-3-yl)methylamino)benzamide]		183	25.1	19.5	9.15	4.39	> 30	
C[C@@H](NC(=O)c1cccc(NCc2nnc(-c3ccncn3)n2C)c1)c1ccc(OCCCCN2CCN(c3ccc4c(c3)CN(C3CCC(=O)NC3=O)C4=O)CC2)cc1 (stereo partly drawn) [Compound D175, N-((1R)-1-(4-(4-(4-(2-(2,6-dioxopiperidin-3-yl)-1-oxoisoindolin-5-yl)piperazin-1-yl)butoxy)phenyl)ethyl)-3-((4-methyl-5-(pyrimidin-4-yl)-4H-1,2,4-triazol-3-yl)methylamino)benzamide hydrochloride]		10.3	87.7	89.2	82.8	< 0.000458	> 30	
